This note sets out measurements from patent US5925667A, “Pyrrolidine derivative, anti-ulcer drug, and antibacterial drug” (Shiseido Co., Ltd., priority 1997, dated 1999).

For one data set, the system named is stress ulcer. Briefly: WIS: Restraint and Water Immersion Stress-Induced Ulcer Inhibition Test. The data set is classed as in vivo, male Crj:SD or Slc:SD rats. The note with it: rat, 100 mg/kg oral, 7 h water immersion stress; read-out: ulcer formation inhibitory rate (WIS). As for the experimental part:
WIS: Restraint and Water Immersion Stress-Induced Ulcer Inhibition Test
The degree of inhibition of the stress ulcer formation is tested.
Male Crj:SD or Slc:SD rats (6 to 7-week-old) were fasted overnight, but allowed free access to water. Each group has 5 to 8 of these rats. The sample compound was dissolved or suspended in an aqueous solution of 0.3% sodium carboxymethylcellulose or 0.05% Tween 80 and then was orally administered (100 mg/10 ml/kg. To a control group, the vehicle was administered. 10 minutes later, the rats were placed in a stress cage and immersed to the level of xipfoid process in a water bath (21° C.) for 7 hours. At the end of the stress, the rats were sacrificed by inhalation of ether or carbon dioxide. Then, the stomach of each was removed, inflated by injecting 10 ml of 5% formalin neutral buffer solution, and immersed in 1% formalin neutral buffer solution for 30 minutes or more to be fixed. The stomach was incised along the greater curvature and then the length of each erosion in the glandular portion was determined under dissecting microscope. The sum of the length of erosions per stomach was defined as ulcer index (UI).
The effect obtained when 100 mg/kg of the sample compound had been administered was expressed as ulcer formation inhibitory rate (%) as follows:
ulcer formation inhibitory rate (%)=(1-(UI in sample group/UI in control group))×100

For data set [1], the system named is isolated gastric fundic gland. The data set is described as follows: CAP: Acid Secretion Inhibition Test In Vitro ([14C]-aminopyrine uptake test). The data set is classed as cell-based, male Japanese White rabbit. The settings on record: Oryctolagus cuniculus; final concentration 10^-5 M, histamine 10^-5 M; read-out: acid secretion inhibitory rate (CAP). Here is the method:
CAP: Acid Secretion Inhibition Test In Vitro
The acid secretion inhibitory activity in a cell level is studied. It can also be used for studying the mechanism of the effect.
ii-a) Preparation of isolated gastric fundus gland suspension
First, an isolated gastric fundic gland sample was prepared. Namely, a male Japanese White rabbit (2.5 to 3 kg) was anesthetized to death with Nembutal™ and then the abdomen was incised. Immediately thereafter, the stomach was removed and, after its pyloric and cardiac antrum were severed, incised along its greater curvature into two sheets. The gastric contents adhering to the mucosal surface was washed out with ice-cooled PBS (-) and then carefully washed therein. The gastric wall was spread on a cork board with its mucosal surface facing up and the feed and mucus thereon were completely removed with sterile gauze. The mucosa was separated therefrom by a spatula and then collected in ice-cooled PBS (-). After being washed twice with PBS (-), the mucosa was minced into 2-3 mm^3 pieces by scissors. These pieces were further washed twice with a nutrient solution. The nutrient solution comprises 132.4 mM of NaCl, 5.4 mM of KCl, 5 mM of Na2 HPO4.12H2 O, 1 mM of NaH2 PO4.2H2,
1.2 mM of MgSO4, 1 mM of CaCl2, 25 mM of HEPES, 2 mg/ml of glucose, and 1 mg/ml of BSA.
Into 70 ml of the nutrient solution containing 1 mg/ml of collagenase, minced mucosal pieces were dispersed and intensely stirred in a conical flask with a stirrer at 37° C. for 40 to 60 minutes. During this period, 100% O2 was sprayed on the nutrient solution surface and the pH was appropriately measured such that it was immediately adjusted to pH 7.4, when the value was therebelow, with a base. The nutrient solution was added to the reaction solution so as to attain the total amount of about 200 ml. After being filtered through a mesh, the suspension was divisionally introduced into 50 ml centrifuge tubes and left for 15 minutes such that gastric fundic gland was deposited. The supernatant was repeatedly removed by an aspirator, dispersed in the nutrient solution, and then left such that the gastric fundic gland was washed three times. At this time, without using a pipette, the suspension was alternately introduced into two centrifuge tubes so as to effect dispersion. The number of cells was counted under microscope and adjusted to 1.6×10^6 cells/ml.
ii-b) [^14 C]-aminopyrine uptake test.
Then, [^14 C]-aminopyrine uptake test was performed. After an Eppendorf tube was weighed, 10 μl (final concentration: 10^-5 M) of histamine dissolved in the above-mentioned nutrient solution, 10 μl (final concentration: 10^-5 M) of the test compound dissolved in DMSO, and 10 μl (final concentration: 0.05 μCi/ml) of [^14 C]-aminopyrine diluted with the nutrient solution were introduced therein and then 970 μl of the isolated gastric fundic gland suspension prepared above was added thereto. Subsequently, this mixture was shaken at 37° C. for 40 minutes at 125 cycles/minute. After being centrifuged for 30 seconds, 200 μl of its supernatant was collected into a mini-vial, while the rest was removed by an aspirator. The gland pellet was completely dried as the tube with its lid being opened was kept for one night in a drying oven at 80° C. and then the lid was closed and the weight was determined at room temperature. Then 100 μl of 1N KOH was added thereto and the tube with its lid being closed was treated at 60° C. for 1 to 2 hours so as to dissolve the pellet. Then, the contents thereof were transferred to a mini-vial. Into the mini-vial containing the supernatant or gland pellet, 4 ml of Atomlite™ was added and then the radioactivity was measured by a liquid scintillation counter. Here, after the radioactivity of the gland pellet was corrected by using a sample in which 20 mM of NaSCN was added so as to cancel the hydrogen ion concentration gradient, the integration ratio of aminopyrine specifically trapped by the gland pellet was calculated. […]

The nature of data set [2]: MTT: Cell Damaging and Protecting Effect Test. The settings on record: rabbit, gastric mucosa cells, final concentration 10^-4 M, smaller value is better, read-out: cell damaging rate (MTT). The data set is classed as cell-based, male Japanese White rabbit. The text has this:
MTT: Cell Damaging and Protecting Effect Test
It is confirmed that there is no toxicity in cell level. Those having a toxicity in cell level are inappropriate as an anti-ulcer drug.
A male Japanese White rabbit (2.5 to 3 kg) was anesthetized to death by Nembutal™ and, immediately thereafter, its stomach was removed. The greater curvature of the stomach was incised so as to remove the stomach contents therefrom. After the mucosal surface was washed with HBSS (Hanks' Balanced Salt Solution), the stomach in ice-cooled HBSS was transferred to a laboratory. Then, after the pyloric antrum was removed, the gastric corpus mucosa was separated by a spatula and then minced into 2 to 3 mm^3 pieces in BME (Basal Medium Eagle). Thereafer, these pieces were shaken at 120 to 130 cycles/minute for 15 minutes at 37° C. in BME 60 ml containing 280 U/ml of dispase and 30 to 50 U/ml of collagenase. Here, the concentration of collagenase was appropriately changed for each lot in view of the state of cells. The pieces were washed twice with EBSS (Earle's Balanced Salt Solution) containing 1 mM of EDTA and then shaken in MEM (Minimum Essential Medium) containing 1 mM of EDTA at 37° C. for 5 minutes. Subsequently, they were shaken in the dispase and collagenase having the same concentrations as those mentioned above for 15 minutes so as to remove the supernatant and then further shaken at 37° C. for 50 to 60 minutes at 120 to 130 cycles/minute. Then, after being washed twice with HBSS, Ham F12 containing 2% of Ultrocer G™ was used to attain the concentration of 1×10^6 cells/ml. Thus formed suspension was dispensed in each well of a 96-well plate by 200 μl. The plate was incubated in the atmosphere composed of 5% CO2 and 95% air at 37° C. for three days so as to attain a confluent state and then subjected to MTT assay.
The sample compound was dissolved in DMSO so as to attain a concentration of 10^-2 M and then diluted with HBSS containing 2% of Ultrocer G™ so as to attain a final concentration of 10^-4 M. To each group, which 8 wells were used for, 10 μl of MTT reagent was added immediately after 100 μl of the medium in each well was exchanged for same volume of the resulting solution of the sample compound. After being incubated in an atmosphere composed of 5% CO2 and 95% air at 37° C. for 4 hours, thus formed solution was centrifuged and then its supernatant was discarded. Subsequently, 100 μl of 100% ethanol was added to the residue so as to dissolve MTT formazan. Then, the absorbance (OD: 570 to 630) was measured by a microplate reader. This method utilizes a phenomenon in which MTT is changed to MTT formazan only by mitochondria of living cells so as to change color.
The cell damaging or cell protecting effect of the sample compound at the final concentration of 10^-4 M was expressed as cell damaging rate (%) as follows:
cell damaging rate (%)=(1-(absorbance in sample group/absorbance in control group))×100
Accordingly, the smaller value is better in the cell damaging rate.

For the compound `CCN1CCCC1CNC(=O)c1cc(OCC=C(C)C)c(OCC=C(C)C)c(OCC=C(C)C)c1` (stereo not shown) [Example 13, 1-ethyl-2-(3,4,5-triprenyloxybenzoylaminomethyl)pyrrolidine], in the data set with stress ulcer, the inhibition in vivo at 100 mg/kg amounted to 57%.

With `CCN1CCCC1CNC(=O)c1ccc(OC/C=C(\C)CCC=C(C)C)c(OC/C=C(\C)CCC=C(C)C)c1` (stereo not shown) [Example 11, 1-ethyl-2-(3,4-digeranyloxybenzoylaminomethyl)pyrrolidine], the inhibition in vivo at 100 mg/kg with stress ulcer stood at 75%.

For `CCN1CCCC1CNC(=O)c1ccccc1OC/C=C(\C)CCC=C(C)C` (stereo not shown) [Example 2, 1-ethyl-2-(2-geranyloxybenzoylaminomethyl)pyrrolidine], in the data set on stress ulcer, the inhibition in vivo at 100 mg/kg was found to be 85%. Moreover, in data set [1], the inhibition at 10 µM was determined as 99.7%. In addition, in data set [2], the cytotoxicity at 4 h, 100 µM came out at 19%.

For `CCN1CCCC1CNC(=O)c1cc(F)ccc1OC/C=C(\C)CCC=C(C)C` (stereo not shown) [Example 20, 1-ethyl-2-(3-fluoro-6-geranyloxybenzoylaminomethyl)pyrrolidine], the inhibition in vivo at 100 mg/kg in the data set on stress ulcer amounted to 89%. Also, the cytotoxicity at 4 h, 100 µM in data set [2] turned out to be 23%.

On to `CCN1CCCC1CNC(=O)c1cc(OC)c(OCC=C(C)C)c(OC)c1` (stereo not shown) [Example 24, 1-ethyl-2-(3,5-dimethoxy-4-prenyloxybenzoylaminomethyl)pyrrolidine], for which the inhibition in vivo at 100 mg/kg in the data set with stress ulcer stood at 79%. In data set [2], the cytotoxicity at 4 h, 100 µM was found to be 12%.

On to `CCN1CCCC1CNC(=O)c1ccc(OCC=C(C)C)cc1` (stereo not shown) [Example 3, 1-ethyl-2-(4-prenyloxybenzoylaminomethyl)pyrrolidine], for which the inhibition in vivo at 100 mg/kg in the data set with stress ulcer was 86%. In addition, in data set [1], the inhibition at 10 µM was 61%. Further, the cytotoxicity at 4 h, 100 µM in data set [2] was -14%.

`CCN1CCCC1CNC(=O)c1ccc(OCC=C(C)C)cc1OCC=C(C)C` (stereo not shown) [Example 5, 1-ethyl-2-(2,4-diprenyloxybenzoylaminomethyl)pyrrolidine]: the inhibition in vivo at 100 mg/kg in the data set with stress ulcer came to 70%. In addition, the inhibition at 10 µM in data set [1] turned out to be 100%. Also, the cytotoxicity at 4 h, 100 µM in data set [2] is 9%.

Turning to `CCN1CCCC1CNC(=O)c1ccc(OC/C=C(\C)CCC=C(C)C)cc1OC/C=C(\C)CCC=C(C)C` (stereo not shown) [Example 9, 1-ethyl-2-(2,4-digeranyloxybenzoylaminomethyl)pyrrolidine], the inhibition in vivo at 100 mg/kg in the data set with stress ulcer is 66%.

For `CCN1CCCC1CNC(=O)c1ccc(OC)cc1OC/C=C(\C)CCC=C(C)C` (stereo not shown) [Example 18, 1-ethyl-2-(2-geranyloxy-4-methoxybenzoylaminomethyl)pyrrolidine], the inhibition in vivo at 100 mg/kg with stress ulcer is 76%. The cytotoxicity at 4 h, 100 µM in data set [2] was found to be 4%.

In the case of `CCN1CCCC1CNC(=O)c1cc(OC)c(OC)c(OC/C=C(\C)CCC=C(C)C)c1` (stereo not shown) [Example 22, 1-ethyl-2-(3,4-dimethoxy-5-geranyloxybenzoylaminomethyl)pyrrolidine], the inhibition in vivo at 100 mg/kg with stress ulcer worked out at 80%.

On to `CCN1CCCC1CNC(=O)c1ccc(OC)c(OC/C=C(\C)CCC=C(C)C)c1` (stereo not shown) [Example 15, 1-ethyl-2-(3-geranyloxy-4-methoxybenzoylaminomethyl)pyrrolidine], for which, in the data set on stress ulcer, the inhibition in vivo at 100 mg/kg was determined as 91%. Besides, the cytotoxicity at 4 h, 100 µM in data set [2] was determined as 2%.

Turning to `CCN1CCCC1CNC(=O)c1ccc(OC/C=C(\C)CCC=C(C)C)nc1` (stereo not shown) [Example 27, 1-ethyl-2-(6-gearnyloxynicotinoylaminomethyl)pyrrolidine], in the data set on stress ulcer, the inhibition in vivo at 100 mg/kg was found to be 88%. In addition, in data set [1], the inhibition at 10 µM was determined as 81%.

In the case of `CCN1CCCC1CNC(=O)c1cc(OC)ccc1OC/C=C(\C)CCC=C(C)C` (stereo not shown) [Example 19, 1-ethyl-2-(2-geranyloxy-5-methoxybenzoylaminomethyl)pyrrolidine], in the data set with stress ulcer, the inhibition in vivo at 100 mg/kg was found to be 89%. The cytotoxicity at 4 h, 100 µM in data set [2] was 21%.

Take `CCN1CCCC1CNC(=O)c1cccnc1OCC=C(C)C` (stereo not shown) [Example 25, 1-ethyl-2-(2-prenyloxynicotinoylaminomethyl)pyrrolidine]: the inhibition in vivo at 100 mg/kg in the data set on stress ulcer was determined as 90%. In data set [2], the cytotoxicity at 4 h, 100 µM was -15%.

Turning to `CCN1CCCC1CNC(=O)c1ccc(OCC=C(C)C)nc1` (stereo not shown) [Example 26, 1-ethyl-2-(6-prenyloxynicotinoylaminomethyl)pyrrolidine], the inhibition in vivo at 100 mg/kg in the data set on stress ulcer was determined as 48%. The cytotoxicity at 4 h, 100 µM in data set [2] is -8%.

Regarding `CCN1CCCC1CNC(=O)c1ccc(OC/C=C(\C)CCC=C(C)C)cc1` (stereo not shown) [Example 1, 1-ethyl-2-(4-geranyloxybenzoylaminomethyl)pyrrolidine], the inhibition in vivo at 100 mg/kg in the data set on stress ulcer turned out to be 80%.

As for `CCN1CCCC1CNC(=O)c1cc(OC)c(OC/C=C(\C)CCC=C(C)C)c(OC)c1` (stereo not shown) [Example 21, 1-ethyl-2-(3,5-dimethoxy-4-geranyloxybenzoylaminomethyl)pyrrolidine], the inhibition in vivo at 100 mg/kg in the data set on stress ulcer came out at 76%.
